Measured values reported in ChEMBL document CHEMBL1201862, “PubChem BioAssay data set” (2004).
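96-well plates; 48 h exposure; 5 concentrations. Endpoints by linear interpolation between flanking doses. Not reached: highest tested concentration assigned. Here, GI50 denotes the concentration required for 50% inhibition of growth.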 Activity calls are given as the source filed them. No stated cut-off is given here; in the data, active = GI50 up to about 1.1 µM and inactive = higher.

Assays:
Test in all cases: growth of human tumour cells (NCI), 48 h
786-0 = tested on: 786-0
A498 = tested on: A498
A549 = tested on: A549
ACHN = tested on: ACHN
BT-549 = tested on: BT-549
CAKI-1 = tested on: CAKI-1
CCRF-CEM = tested on: CCRF-CEM
COLO 205 = tested on: COLO 205
DU-145 = tested on: DU-145
EKVX = tested on: EKVX
HCC 2998 = tested on: HCC 2998
HCT-116 = tested on: HCT-116
HCT-15 = tested on: HCT-15
HL-60 = tested on: HL-60
HOP-62 = tested on: HOP-62
HT-29 = tested on: HT-29
Hs-578T = tested on: Hs-578T
IGROV-1 = tested on: IGROV-1
K562 = tested on: K562
KM12 = tested on: KM12
LOX IMVI = tested on: LOX IMVI
M14 = tested on: M14
MCF7 = tested on: MCF7
MDA-MB-231 = tested on: MDA-MB-231
MDA-MB-435 = tested on: MDA-MB-435
MDA-N = tested on: MDA-N
MOLT-4 = tested on: MOLT-4
Malme-3M = tested on: Malme-3M
NCI-H226 = tested on: NCI-H226
NCI-H23 = tested on: NCI-H23
NCI-H460 = tested on: NCI-H460
NCI-H522 = tested on: NCI-H522
NCI/ADR-RES = tested on: NCI/ADR-RES
OVCAR-3 = tested on: OVCAR-3
OVCAR-4 = tested on: OVCAR-4
OVCAR-5 = tested on: OVCAR-5
OVCAR-8 = tested on: OVCAR-8
PC-3 = tested on: PC-3
RPMI-8226 = tested on: RPMI-8226
RXF 393 = tested on: RXF 393
SF-268 = tested on: SF-268
SF-295 = tested on: SF-295
SF-539 = tested on: SF-539
SK-MEL-28 = tested on: SK-MEL-28
SK-MEL-2 = tested on: SK-MEL-2
SK-MEL-5 = tested on: SK-MEL-5
SK-OV-3 = tested on: SK-OV-3
SN12C = tested on: SN12C
SNB-75 = tested on: SNB-75
SW-620 = tested on: SW-620
T47D = tested on: T47D
TK-10 = tested on: TK-10
U-251 = tested on: U-251
UACC-257 = tested on: UACC-257
UACC-62 = tested on: UACC-62
UO-31 = tested on: UO-31
SNB-19 = tested on: SNB-19
SR = tested on: SR
HOP-92 = tested on: HOP-92

With `NC(Cc1ccc(S(=O)(=O)O)cc1)C(=O)NC(CCCCNC(=O)NCCCCC(NC(=O)C(N)Cc1ccc(S(=O)(=O)O)cc1)C(=O)NC(Cc1ccc(S(=O)(=O)O)cc1)C(=O)O)C(=O)NC(Cc1ccc(S(=O)(=O)O)cc1)C(=O)O` (centres undefined) the GI50 (786-0) was > 100 µM (inactive), the GI50 (A498) was > 100 µM (inactive) and the GI50 (A549) was > 100 µM (inactive). The GI50 (ACHN) was > 100 µM (inactive), the GI50 (BT-549) was > 100 µM (inactive) and the GI50 (CAKI-1) was > 100 µM (inactive). The GI50 (CCRF-CEM) was > 100 µM (inactive), the GI50 (COLO 205) was > 100 µM (inactive) and the GI50 (DU-145) was > 100 µM (inactive). For the same compound, the GI50 (EKVX) was > 100 µM (inactive), the GI50 (HCC 2998) was > 100 µM (inactive) and the GI50 (HCT-116) was > 100 µM (inactive). For the same compound, the GI50 (HCT-15) was greater than 100 µM, the GI50 (HL-60) was > 100 µM (inactive) and the GI50 (HOP-62) was > 100 µM (inactive). The GI50 (HT-29) was > 100 µM (inactive), the GI50 (Hs-578T) was > 100 µM (inactive) and the GI50 (IGROV-1) was > 100 µM (inactive). The GI50 (K562) was > 100 µM (inactive), the GI50 (KM12) was > 100 µM (inactive) and the GI50 (LOX IMVI) was > 100 µM (inactive). For the same compound, the GI50 (M14) was > 100 µM (inactive), the GI50 (MCF7) was 69.5 µM (inactive) and the GI50 (MDA-MB-231) was > 100 µM (inactive). For the same compound, the GI50 (MDA-MB-435) was > 100 µM (inactive), the GI50 (MDA-N) was > 100 µM (inactive) and the GI50 (MOLT-4) was > 100 µM (inactive). The GI50 (Malme-3M) was > 100 µM (inactive), the GI50 (NCI-H226) was > 100 µM (inactive) and the GI50 (NCI-H23) was > 100 µM (inactive). For the same compound, the GI50 (NCI-H460) was > 100 µM (inactive), the GI50 (NCI-H522) was > 100 µM (inactive) and the GI50 (NCI/ADR-RES) was > 100 µM (inactive). For the same compound, the GI50 (OVCAR-3) was > 100 µM (inactive), the GI50 (OVCAR-4) was > 100 µM (inactive) and the GI50 (OVCAR-5) was > 100 µM (inactive). For the same compound, the GI50 (OVCAR-8) was > 100 µM (inactive), the GI50 (PC-3) was > 100 µM (inactive) and the GI50 (RPMI-8226) was > 100 µM (inactive). The GI50 (RXF 393) was > 100 µM (inactive), the GI50 (SF-268) was > 100 µM (inactive) and the GI50 (SF-295) was > 100 µM (inactive). For the same compound, the GI50 (SF-539) was > 100 µM (inactive), the GI50 (SK-MEL-28) was > 100 µM (inactive) and the GI50 (SK-MEL-2) was > 100 µM (inactive). The GI50 (SK-MEL-5) was > 100 µM (inactive), the GI50 (SK-OV-3) was > 100 µM (inactive) and the GI50 (SN12C) was > 100 µM (inactive). For the same compound, the GI50 (SNB-75) was > 100 µM (inactive), the GI50 (SW-620) was > 100 µM (inactive) and the GI50 (T47D) was > 100 µM (inactive). For the same compound, the GI50 (TK-10) was > 100 µM (inactive), the GI50 (U-251) was > 100 µM (inactive) and the GI50 (UACC-257) was > 100 µM (inactive). The GI50 (UACC-62) was > 100 µM (inactive) and the GI50 (UO-31) was > 100 µM (inactive).
In the case of `CC(=O)N1c2ccccc2C2=NN=C(N(C)C)SC21` (centres undefined), the GI50 (786-0) was 2.48 µM (inactive), the GI50 (A498) was 3.17 µM (inactive) and the GI50 (A549) was 2.89 µM (inactive). For the same compound, the GI50 (ACHN) was 2.54 µM (inactive), the GI50 (BT-549) was 9.35 µM (inactive) and the GI50 (CCRF-CEM) was 2.1 µM (inactive). For the same compound, the GI50 (COLO 205) was 3.3 µM (inactive), the GI50 (DU-145) was 1.58 µM (inactive) and the GI50 (EKVX) was 2.75 µM (inactive). For the same compound, the GI50 (HCC 2998) was 2.72 µM (inactive), the GI50 (HCT-116) was 2.72 µM (inactive) and the GI50 (HCT-15) was 0.838 µM. For the same compound, the GI50 (HL-60) was 2.14 µM (inactive), the GI50 (HOP-62) was 3.8 µM (inactive) and the GI50 (HT-29) was 4.86 µM (inactive). The GI50 (Hs-578T) was 13.5 µM (inactive), the GI50 (K562) was 3.37 µM (inactive) and the GI50 (KM12) was 3.18 µM (inactive). For the same compound, the GI50 (LOX IMVI) was 2.1 µM (inactive), the GI50 (M14) was 1.84 µM (inactive) and the GI50 (MCF7) was 4.06 µM (inactive). The GI50 (MDA-MB-231) was 1.89 µM (inactive), the GI50 (MDA-MB-435) was 6.56 µM (inactive) and the GI50 (MDA-N) was 3.33 µM (inactive). The GI50 (MOLT-4) was 3.09 µM (inactive), the GI50 (Malme-3M) was 3.37 µM (inactive) and the GI50 (NCI-H226) was 3.12 µM (inactive). The GI50 (NCI-H23) was 5.19 µM (inactive), the GI50 (NCI-H460) was 2.46 µM (inactive) and the GI50 (NCI-H522) was 2.3 µM (inactive). The GI50 (NCI/ADR-RES) was 2.75 µM (inactive), the GI50 (OVCAR-3) was 3.05 µM (inactive) and the GI50 (OVCAR-4) was 10.4 µM (inactive). The GI50 (OVCAR-5) was 4.24 µM (inactive), the GI50 (OVCAR-8) was 2.65 µM (inactive) and the GI50 (PC-3) was 2.84 µM (inactive). For the same compound, the GI50 (RPMI-8226) was 5.96 µM (inactive), the GI50 (SF-268) was 1.82 µM (inactive) and the GI50 (SF-295) was 2.41 µM (inactive). For the same compound, the GI50 (SF-539) was 3.48 µM (inactive), the GI50 (SK-MEL-28) was 3.47 µM (inactive) and the GI50 (SK-MEL-2) was 2.18 µM (inactive). For the same compound, the GI50 (SN12C) was 2.08 µM (inactive), the GI50 (SNB-19) was 3.85 µM (inactive) and the GI50 (SNB-75) was 13.6 µM (inactive). The GI50 (SR) was 3.28 µM (inactive), the GI50 (SW-620) was 4.78 µM (inactive) and the GI50 (T47D) was 3.52 µM (inactive). The GI50 (TK-10) was 9.06 µM (inactive), the GI50 (U-251) was 1.67 µM (inactive) and the GI50 (UACC-257) was 3.64 µM (inactive). For the same compound, the GI50 (UO-31) was 1.45 µM (inactive).
`O=C(O)c1ccccc1/C=N/N=C1NCCCCN1` was tested, and the GI50 (786-0) was > 100 µM (inactive), the GI50 (A498) was > 100 µM (inactive) and the GI50 (A549) was > 100 µM (inactive). The GI50 (ACHN) was > 100 µM (inactive), the GI50 (BT-549) was > 100 µM (inactive) and the GI50 (CCRF-CEM) was > 100 µM (inactive). For the same compound, the GI50 (COLO 205) was > 100 µM (inactive), the GI50 (EKVX) was > 100 µM (inactive) and the GI50 (HCC 2998) was > 100 µM (inactive). The GI50 (HCT-116) was > 100 µM (inactive), the GI50 (HCT-15) was greater than 100 µM and the GI50 (HL-60) was > 100 µM (inactive). The GI50 (HOP-62) was > 100 µM (inactive), the GI50 (HOP-92) was > 100 µM (inactive) and the GI50 (HT-29) was > 100 µM (inactive). The GI50 (Hs-578T) was > 100 µM (inactive), the GI50 (IGROV-1) was > 100 µM (inactive) and the GI50 (K562) was > 100 µM (inactive). The GI50 (KM12) was > 100 µM (inactive), the GI50 (LOX IMVI) was > 100 µM (inactive) and the GI50 (M14) was > 100 µM (inactive). For the same compound, the GI50 (MCF7) was > 100 µM (inactive), the GI50 (MDA-MB-231) was > 100 µM (inactive) and the GI50 (MDA-MB-435) was > 100 µM (inactive). For the same compound, the GI50 (MDA-N) was > 100 µM (inactive), the GI50 (MOLT-4) was > 100 µM (inactive) and the GI50 (Malme-3M) was > 100 µM (inactive). The GI50 (NCI-H226) was > 100 µM (inactive), the GI50 (NCI-H23) was > 100 µM (inactive) and the GI50 (NCI-H460) was > 100 µM (inactive). The GI50 (NCI-H522) was 90.8 µM (inactive), the GI50 (NCI/ADR-RES) was > 100 µM (inactive) and the GI50 (OVCAR-3) was > 100 µM (inactive). The GI50 (OVCAR-4) was > 100 µM (inactive), the GI50 (OVCAR-5) was > 100 µM (inactive) and the GI50 (OVCAR-8) was > 100 µM (inactive). For the same compound, the GI50 (PC-3) was > 100 µM (inactive), the GI50 (RPMI-8226) was > 100 µM (inactive) and the GI50 (RXF 393) was > 100 µM (inactive). The GI50 (SF-268) was > 100 µM (inactive), the GI50 (SF-295) was > 100 µM (inactive) and the GI50 (SF-539) was > 100 µM (inactive). The GI50 (SK-MEL-28) was > 100 µM (inactive), the GI50 (SK-MEL-2) was > 100 µM (inactive) and the GI50 (SK-MEL-5) was > 100 µM (inactive). The GI50 (SK-OV-3) was > 100 µM (inactive), the GI50 (SNB-19) was > 100 µM (inactive) and the GI50 (SNB-75) was > 100 µM (inactive). For the same compound, the GI50 (SR) was > 100 µM (inactive), the GI50 (SW-620) was > 100 µM (inactive) and the GI50 (T47D) was > 100 µM (inactive). For the same compound, the GI50 (TK-10) was > 100 µM (inactive), the GI50 (U-251) was > 100 µM (inactive) and the GI50 (UACC-257) was > 100 µM (inactive). For the same compound, the GI50 (UACC-62) was > 100 µM (inactive) and the GI50 (UO-31) was > 100 µM (inactive).
